This note sets out measurements from patent US10669242B2 (priority 2016, dated 2020).

What is called IC50 is the point on the concentration scale where inhibition reaches its midpoint.

Experiment [1] deals with T1, C. difficile full-length toxin TcdB (Clostridioides difficile, UniProt P18177).
T1 construct: C. difficile full-length toxins (TcdA or TcdB); purchased EMD Millipore 616377
Briefly: cell-based.

Experiment [2] concerns the target T2, recombinant glucosyltransferase domain of C. difficile Toxin B/TcdB (Clostridioides difficile, UniProt P18177).
T2 construct: 6-His (C); purchased R&D Systems 6246-GT
Briefly: biochemical.

Experiment [3] deals with T3, C. difficile full-length toxin TcdA (Clostridioides difficile, UniProt P16154).
T3 construct: C. difficile full-length toxins (TcdA or TcdB); purchased Enzo Life Sciences BML-G140-0050
Briefly: cell-based.

Experiment [4] has as its system C. difficile toxin (TcdA and TcdB, ~1:1). Briefly: Murine C. difficile toxin model (intrarectal toxin). The following applies: murine C. difficile toxin model, PO, 50 mg/kg body weight. Type of experiment: in vivo, C57BL/6 mice. The procedure: In the following studies, we established a murine C. difficile toxin model with modifications from a published murine model (Hirota, Iablokov et al. 2012). Details of the murine C. difficile toxin model are described in the “Experimental Protocols” (below). C. difficile toxins were isolated from a culture of the C. difficile strain VPI 10463. C. difficile toxins consisted of TcdA and TcdB (˜1:1 ratio of TcdA:TcdB). Respective TcdA and TcdB concentrations were determined by enzyme-linked immunosorbant assay (ELISA). In our mouse model, C. difficile toxins were administered intrarectally to evaluate their pathological effects.
We administered C. difficile toxin (12.5 μg/mouse) via intrarectal instillation into female C57BL/6 mice. Four (4) animals were used in each group. Four (4) hours after the toxin administration, the mice were euthanized. The colons were excised from the animals and washed with phosphate buffered saline (PBS). The colon lengths were measured. Excised colon tissues were stored at −70° C. for chemical analysis of interleukin-1β(IL-1β) and myeloperosidase (MPO) in tissues, which are the hallmarks of colon inflammation. Excised colon tissues were also stored at room temperature in 10% neutral buffered formalin for histopathological analysis.
Using the murine C. difficile toxin model (Example 61), we evaluated the efficacy of Example 6a in reducing the C. difficile toxin activity. In this study, the isolated toxin (12.5 μg) was diluted in 50 μl of PBS and mixed with a 50 μl suspension of Example 6a (10 mg/mL) in 1% carboxymethyl cellulose and 0.5% Tween 80 to achieve a fixed dose of […] of Example 6a (0.5 mg in mice weighing ˜20 g) and C. difficile toxin (12.5 μg). Three (3) animals were used in each group.
In this study, we evaluated the efficacy of Example 6a via different routes of administration (i.e., oral (PO) and intraperitoneal (IP) administrations) in the same murine C. difficile toxin model (Example 61). In both PO and IP dosages, Example 6a was prepared as 5 mg/mL solutions in 20% PEG-400, 0.4% carboxymethyl cellulose and 0.2% Tween 80. Example 6a was administered at a final dose of 50 mg/kg body weight. Three (3) mice were used in each group (i.e., vehicle (control), PO and IP).
Using the murine C. difficile toxin model (Example 63), we further tested the efficacy of four (4) additional compounds (i.e., Example 6a, Example 5ae, Example 4cl, and Example 5al) via PO administration. All of the compounds were dosed orally at 50 mg/kg body weight. In three separate studies a total of three (3) to fourteen (14) mice were used in each group.
We evaluated the efficacy of additional compounds in reducing C. difficile toxicity. Using the PO administration (Example 63), we further tested 30 compounds (Table 34). All of the compounds were dosed orally at 50 mg/kg body weight. Three (3) to fourteen (14) animals were used for each compound. % inhibition was determined by the following formula: […]
An overnight culture of C. difficile strain VPI 10463 (American Type Culture Collection) was grown at 37° C. in Brain-Heart Infusion (BHI) broth using the GasPak EZ Anaerobe Pouch System (Becton Dickinson). 2 mL of the culture was added to 28 mL of phosphate buffered saline (PBS) in a gamma-irradiated, 10,000 molecular weight cut-off, 30-70 ml Slide-A-Lyzer G2 dialysis cassette (Pierce). This cassette was submerged in 1 L of BHI broth in a 2 L beaker and incubated under anaerobic conditions for 5 days at 37° C. The culture was then transferred to a 50 mL conical tube and the cassette was washed with 10 mL of PBS. The combined culture and wash were centrifuged at 2,000 g for 20 minutes to pellet the bacteria and the supernatant was filtered through a 0.2 μm syringe filter. The filtrate was then applied to a 20 mL 150 K molecular weight cut-off concentration column (Pierce) and centrifuged at 2,000 g for 15 minutes. Concentrated supernatant was stored at 4° C. […]

Bounds are passed on as bounds.

T1 sequence (P18177 2-2366 limits assumed): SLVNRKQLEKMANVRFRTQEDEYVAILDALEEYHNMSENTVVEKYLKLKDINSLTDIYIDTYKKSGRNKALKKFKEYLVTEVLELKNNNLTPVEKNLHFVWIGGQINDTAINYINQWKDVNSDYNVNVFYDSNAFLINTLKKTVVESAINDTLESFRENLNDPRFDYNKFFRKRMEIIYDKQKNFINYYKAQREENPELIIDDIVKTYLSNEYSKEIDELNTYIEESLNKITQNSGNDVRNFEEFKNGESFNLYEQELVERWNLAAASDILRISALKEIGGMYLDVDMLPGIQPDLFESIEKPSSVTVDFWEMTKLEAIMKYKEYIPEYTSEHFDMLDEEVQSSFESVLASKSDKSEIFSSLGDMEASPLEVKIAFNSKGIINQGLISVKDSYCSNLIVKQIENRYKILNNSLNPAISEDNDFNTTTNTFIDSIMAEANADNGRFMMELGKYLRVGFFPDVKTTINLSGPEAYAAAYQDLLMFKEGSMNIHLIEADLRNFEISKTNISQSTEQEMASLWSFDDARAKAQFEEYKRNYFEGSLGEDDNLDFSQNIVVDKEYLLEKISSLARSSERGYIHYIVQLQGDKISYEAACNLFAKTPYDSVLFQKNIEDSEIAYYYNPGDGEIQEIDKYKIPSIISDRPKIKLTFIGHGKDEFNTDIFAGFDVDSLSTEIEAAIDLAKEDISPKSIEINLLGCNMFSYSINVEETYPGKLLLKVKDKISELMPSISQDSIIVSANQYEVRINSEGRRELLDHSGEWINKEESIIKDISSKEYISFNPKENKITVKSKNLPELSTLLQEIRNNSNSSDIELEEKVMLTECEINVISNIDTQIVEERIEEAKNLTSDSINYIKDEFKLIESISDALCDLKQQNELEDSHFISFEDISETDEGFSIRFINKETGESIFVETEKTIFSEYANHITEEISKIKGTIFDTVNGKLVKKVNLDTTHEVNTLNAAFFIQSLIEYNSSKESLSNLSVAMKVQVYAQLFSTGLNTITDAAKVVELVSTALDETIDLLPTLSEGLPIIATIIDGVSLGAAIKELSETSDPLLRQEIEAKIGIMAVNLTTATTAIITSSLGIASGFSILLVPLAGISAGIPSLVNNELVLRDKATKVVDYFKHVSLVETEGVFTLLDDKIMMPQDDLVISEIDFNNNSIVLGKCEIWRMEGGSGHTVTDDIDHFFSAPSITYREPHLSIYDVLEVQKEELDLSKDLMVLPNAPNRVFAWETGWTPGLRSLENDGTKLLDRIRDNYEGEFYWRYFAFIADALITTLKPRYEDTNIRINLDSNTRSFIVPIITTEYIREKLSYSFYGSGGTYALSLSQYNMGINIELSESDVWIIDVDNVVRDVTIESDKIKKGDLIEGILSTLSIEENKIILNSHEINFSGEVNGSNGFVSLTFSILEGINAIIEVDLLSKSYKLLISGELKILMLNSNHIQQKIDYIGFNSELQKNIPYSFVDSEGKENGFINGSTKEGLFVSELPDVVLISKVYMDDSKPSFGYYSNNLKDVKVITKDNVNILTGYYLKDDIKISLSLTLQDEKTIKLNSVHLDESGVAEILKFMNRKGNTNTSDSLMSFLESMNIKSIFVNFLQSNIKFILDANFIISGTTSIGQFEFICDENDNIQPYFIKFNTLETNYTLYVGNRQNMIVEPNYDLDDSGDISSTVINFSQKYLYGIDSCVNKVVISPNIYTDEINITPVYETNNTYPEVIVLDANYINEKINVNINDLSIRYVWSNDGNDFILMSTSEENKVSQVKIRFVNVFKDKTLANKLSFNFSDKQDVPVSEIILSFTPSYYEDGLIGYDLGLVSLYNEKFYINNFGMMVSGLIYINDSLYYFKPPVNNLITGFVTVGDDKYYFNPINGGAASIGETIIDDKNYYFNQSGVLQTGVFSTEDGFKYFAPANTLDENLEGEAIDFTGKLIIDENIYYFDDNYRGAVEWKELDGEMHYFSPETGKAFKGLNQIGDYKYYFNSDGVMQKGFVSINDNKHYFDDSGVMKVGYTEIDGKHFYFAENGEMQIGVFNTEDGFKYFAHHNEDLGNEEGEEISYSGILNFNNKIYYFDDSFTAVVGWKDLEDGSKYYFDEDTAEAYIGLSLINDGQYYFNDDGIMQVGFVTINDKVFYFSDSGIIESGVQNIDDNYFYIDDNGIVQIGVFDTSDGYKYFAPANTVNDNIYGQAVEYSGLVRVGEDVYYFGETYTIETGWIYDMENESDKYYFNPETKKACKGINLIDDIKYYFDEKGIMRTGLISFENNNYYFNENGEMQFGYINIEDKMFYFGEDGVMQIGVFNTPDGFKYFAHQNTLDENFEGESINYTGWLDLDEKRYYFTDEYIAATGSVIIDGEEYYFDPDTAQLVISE
T2 sequence (P18177 1-543): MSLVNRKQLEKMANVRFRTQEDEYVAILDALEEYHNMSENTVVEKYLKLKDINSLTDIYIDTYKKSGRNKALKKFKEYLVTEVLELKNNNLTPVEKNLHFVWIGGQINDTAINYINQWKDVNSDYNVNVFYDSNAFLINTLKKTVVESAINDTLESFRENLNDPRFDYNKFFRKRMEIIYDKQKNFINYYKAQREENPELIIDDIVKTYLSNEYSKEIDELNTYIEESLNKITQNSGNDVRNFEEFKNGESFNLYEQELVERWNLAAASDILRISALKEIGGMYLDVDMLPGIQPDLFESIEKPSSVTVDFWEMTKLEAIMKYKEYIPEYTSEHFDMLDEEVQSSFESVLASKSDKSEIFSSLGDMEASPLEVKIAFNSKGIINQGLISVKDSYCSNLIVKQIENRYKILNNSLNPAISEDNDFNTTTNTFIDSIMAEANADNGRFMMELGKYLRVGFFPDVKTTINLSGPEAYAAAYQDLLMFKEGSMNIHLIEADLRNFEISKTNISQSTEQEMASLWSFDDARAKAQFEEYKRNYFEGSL

Turning to `COc1cnc(NC(=O)c2ccc(CN3C(=O)c4ccc(Cl)cc4NC(=O)[C@H]3Cc3ccccn3)cc2C)nc1` [Example 5ai, (R)-4-((8-Chloro-2,5-dioxo-3-(pyridin-2-ylmethyl)-2,3-dihydro-1H-benzo[e][1,4]diazepin-4(5H)-yl)methyl)-N-(5-methoxypyrimidin-2-yl)-2-methylbenzamide], the IC50 in experiment [1] is less than 100 nM; in experiment [2] it was less than 100 nM; in experiment [3], 100 to 999 nM. In addition, the “IL-1β (% Inhibition)” value in experiment [4] is recorded as 96%. Besides, in experiment [4], the “MPO (% Inhibition)” value is reported as 79%.

In the case of `O=C(Nc1ccc(CN2C(=O)c3ccc(Cl)cc3NC(=O)[C@H]2Cc2ccccn2)cc1)c1c[nH]cn1` [Example 27j, (R)-N-(4-((8-Chloro-2,5-dioxo-3-(pyridin-2-ylmethyl)-2,3-dihydro-1H-benzo[e][1,4]diazepin-4(5H)-yl)methyl)phenyl)-1H-imidazole-4-carboxamide], the values for the IC50 in experiment [1], in experiment [2] and in experiment [3] were 1000 to 10000 nM, less than 100 nM and greater than 10000 nM, respectively. The “IL-1β (% Inhibition)” value in experiment [4] turned out to be 41%. Also, in experiment [4], the “MPO (% Inhibition)” value is recorded as 1%.

`COc1cnc(NC(=O)c2ccc(CN3C(=O)c4ccc(Cl)cc4NC(=O)[C@H]3Cc3ccccn3)cc2C)cn1` [Example 5af, (R)-4-((8-Chloro-2,5-dioxo-3-(pyridin-2-ylmethyl)-2,3-dihydro-1H-benzo[e][1,4]diazepin-4(5H)-yl)methyl)-N-(5-methoxypyrazin-2-yl)-2-methylbenzamide]: the IC50 in experiment [1] is 100 to 999 nM; in experiment [2] it was less than 100 nM; in experiment [3], 1000 to 10000 nM. For the same compound, the “IL-1β (% Inhibition)” value in experiment [4] was 100%. In addition, in experiment [4], the “MPO (% Inhibition)” value came to 100%.

On to `COc1cnc(NC(=O)c2ccc(CN3C(=O)c4ccc(Cl)cc4NC(=O)[C@H]3Cc3ccccn3)cc2OC)nc1` [Example 5an, (R)-4-((8-Chloro-2,5-dioxo-3-(pyridin-2-ylmethyl)-2,3-dihydro-1H-benzo[e][1,4]diazepin-4(5H)-yl)methyl)-2-methoxy-N-(5-methoxypyrimidin-2-yl)benzamide], for which the results for the IC50 in experiment [1], in experiment [2] and in experiment [3] were 100 to 999 nM, less than 100 nM and 1000 to 10000 nM, respectively. In addition, the “IL-1β (% Inhibition)” value in experiment [4] turned out to be 87%. In experiment [4], the “MPO (% Inhibition)” value is on record as 63%.

As to `Cn1cc(C(=O)c2ccc(CN3C(=O)c4ccc(Cl)cc4NC(=O)[C@H]3Cc3ccccn3)cc2)c2ncccc21` [Example 31a, (R)-8-Chloro-4-(4-(1-methyl-1H-pyrrolo[3,2-b]pyridine-3-carbonyl)benzyl)-3-(pyridin-2-ylmethyl)-3,4-dihydro-1H-benzo[e][1,4]diazepine-2,5-dione], the IC50 was 100 to 999 nM in experiment [1], less than 100 nM in experiment [2] and 1000 to 10000 nM in experiment [3]. Further, in experiment [4], the “IL-1β (% Inhibition)” value came to 100%. Moreover, in experiment [4], the “MPO (% Inhibition)” value amounted to 100%.

In the case of `Cc1ccc(C(=O)c2ccc(CN3C(=O)c4ccc(Cl)cc4NC(=O)[C@H]3Cc3ccccn3)cc2)nc1` [Example 11b, (R)-8-Chloro-4-(4-(5-methylpicolinoyl)benzyl)-3-(pyridin-2-ylmethyl)-3,4-dihydro-1H-benzo[e][1,4]diazepine-2,5-dione], the results for the IC50 in experiment [1], in experiment [2] and in experiment [3] were 1000 to 10000 nM, less than 100 nM and greater than 10000 nM, respectively. Besides, in experiment [4], the “IL-1β (% Inhibition)” value worked out at 52%. For the same compound, the “MPO (% Inhibition)” value in experiment [4] is on record as 100%.

Turning to `COc1cnc(NC(=O)c2ccc(CN3C(=O)c4ccc(Cl)cc4NC(=O)[C@H]3Cc3ccccn3)cc2Cl)cn1` [Example 4ci, (R)-2-Chloro-4-((8-chloro-2,5-dioxo-3-(pyridin-2-ylmethyl)-2,3-dihydro-1H-benzo[e][1,4]diazepin-4(5H)-yl)methyl)-N-(5-methoxypyrazin-2-yl)benzamide], the IC50 in experiment [1] is 100 to 999 nM; in experiment [2] it was less than 100 nM; in experiment [3], 1000 to 10000 nM. For the same compound, the “IL-1β (% Inhibition)” value in experiment [4] amounted to 86%. The “MPO (% Inhibition)” value in experiment [4] is recorded as 19%.

As to `O=C(Nc1ccc(F)cn1)c1ccc(CN2C(=O)c3ccc(Cl)cc3NC(=O)[C@H]2Cc2ccccn2)cc1` [Example 4a, (R)-4-((8-Chloro-2,5-dioxo-3-(pyridin-2-ylmethyl)-2,3-dihydro-1H-benzo[e][1,4]diazepin-4(5H)-yl)methyl)-N-(5-fluoropyridin-2-yl)benzamide], the IC50 in experiment [1] is less than 100 nM; in experiment [2], less than 100 nM; in experiment [3], 1000 to 10000 nM. In experiment [4], the “IL-1β (% Inhibition)” value is listed as 30%. For the same compound, the “MPO (% Inhibition)” value in experiment [4] amounted to 51%.

Consider `O=C(c1ccccn1)c1ccc(CN2C(=O)c3ccc(Cl)cc3NC(=O)[C@H]2Cc2ccccn2)cc1Cl` [Example 11g, (R)-8-Chloro-4-(3-chloro-4-picolinoylbenzyl)-3-(pyridin-2-ylmethyl)-3,4-dihydro-1H-benzo[e][1,4]diazepine-2,5-dione], for which the IC50 in experiment [1] was 1000 to 10000 nM; in experiment [2], less than 100 nM; in experiment [3] it was greater than 10000 nM. Further, the “IL-1β (% Inhibition)” value in experiment [4] amounted to 15%. Besides, in experiment [4], the “MPO (% Inhibition)” value is listed as 28%.

For `COc1cc(CN2C(=O)c3ccc(Cl)cc3NC(=O)[C@H]2Cc2ccccn2)ccc1C(=O)Nc1ccc(C)cn1` [Example 4cm, (R)-4-((8-Chloro-2,5-dioxo-3-(pyridin-2-ylmethyl)-2,3-dihydro-1H-benzo[e][1,4]diazepin-4(5H)-yl)methyl)-2-methoxy-N-(5-methylpyridin-2-yl)benzamide], the IC50 was 100 to 999 nM in experiment [1], less than 100 nM in experiment [2] and greater than 10000 nM in experiment [3]. Moreover, in experiment [4], the “IL-1β (% Inhibition)” value is listed as 49%. In experiment [4], the “MPO (% Inhibition)” value was found to be 35%.

As to `Cc1ccc(NC(=O)c2ccc(CN3C(=O)c4ccc(Cl)cc4NC(=O)[C@H]3Cc3ccccn3)cc2Cl)nc1` [Example 4cb, (R)-2-Chloro-4-((8-chloro-2,5-dioxo-3-(pyridin-2-ylmethyl)-2,3-dihydro-1H-benzo[e][1,4]diazepin-4(5H)-yl)methyl)-N-(5-methylpyridin-2-yl)benzamide], the IC50 in experiment [1] was less than 100 nM; in experiment [2] it was less than 100 nM; in experiment [3], 100 to 999 nM. Also, the “IL-1β (% Inhibition)” value in experiment [4] is reported as 74%. The “MPO (% Inhibition)” value in experiment [4] worked out at 99%.

Take `O=C(c1ccc(CN2C(=O)c3ccc(Cl)cc3NC(=O)[C@H]2Cc2ccccn2)cc1)c1ccccn1` [Example 11a, (R)-8-Chloro-4-(4-picolinoylbenzyl)-3-(pyridin-2-ylmethyl)-3,4-dihydro-1H-benzo[e][1,4]diazepine-2,5-dione]: the figures for the IC50 in experiment [1], in experiment [2] and in experiment [3] were 1000 to 10000 nM, less than 100 nM and greater than 10000 nM, respectively. The “IL-1β (% Inhibition)” value in experiment [4] was determined as 22%. The “MPO (% Inhibition)” value in experiment [4] was found to be 0%.

Consider `COc1cnc(NC(=O)c2ccc(CN3C(=O)c4ccc(Cl)cc4NC(=O)[C@H]3Cc3ccccn3)cc2Cl)nc1` [Example 5ab, (R)-2-Chloro-4-((8-chloro-2,5-dioxo-3-(pyridin-2-ylmethyl)-2,3-dihydro-1H-benzo[e][1,4]diazepin-4(5H)-yl)methyl)-N-(5-methoxypyrimidin-2-yl)benzamide], for which the IC50 in experiment [1] was less than 100 nM; in experiment [2] it was less than 100 nM; in experiment [3], 1000 to 10000 nM. Further, in experiment [4], the “IL-1β (% Inhibition)” value was 100%. Also, the “MPO (% Inhibition)” value in experiment [4] is reported as 100%.
